Test results taken from US12590134B2, “GLP-1 agonist polypeptide compound and salt thereof, synthesis method therefor and use thereof” (Sinopep-Allsino Biopharmaceutical Co., Ltd., priority 2020, dated 2026).
Numbered stars: 1 amine (or outer) side, 2 acyl side, 3 side chain; on linkers, the order of the positions; unused ones are H or OH. Square brackets hold non-standard residues; d marks the D form. Side chains are listed from the residue outwards. Peptide text beside a SMILES is read from it. * marks the point of attachment. C18 diacid = O=C(O)CCCCCCCCCCCCCCCCC(=O)*; γGlu = O=C(O)[C@H](CCC(=O)[*:2])N[*:1]; Ac4c(3-oxa) = NC1(C(=O)O)COC1; dNle = CCCC[C@@H](N)C(=O)O; dNva = CCC[C@@H](N)C(=O)O; dAbu = CC[C@@H](N)C(=O)O; Abu = CC[C@H](N)C(=O)O; AEEA = NCCOCCOCC(=O)O

molecular target: human GLP-1R (Homo sapiens, UniProt P43220); experiment: cAMP signal analysis of GLP-1R (GLP-1 receptor agonist activity); format: cell-based; settings: not given
Method: A wild human GLP-1R (NM_002062.5) was subjected to transient transfection and screened for two weeks by 600 μg/ml of hygromycin-B to obtain a cell line which was recombined and integrated into an FlpInCHO (Invitrogen) cell stable expression system. The culture condition of the FlpInCHO cell was as follows: 10% of heat-inactivated fetal calf serum was added to a DMEM culture solution, and the culture was performed in a 5% carbon dioxide cell incubator.
In the test, an LANCE cAMP detection kit was used for measuring the cAMP signal intensity.

Chain of human GLP-1R (P43220 24-463): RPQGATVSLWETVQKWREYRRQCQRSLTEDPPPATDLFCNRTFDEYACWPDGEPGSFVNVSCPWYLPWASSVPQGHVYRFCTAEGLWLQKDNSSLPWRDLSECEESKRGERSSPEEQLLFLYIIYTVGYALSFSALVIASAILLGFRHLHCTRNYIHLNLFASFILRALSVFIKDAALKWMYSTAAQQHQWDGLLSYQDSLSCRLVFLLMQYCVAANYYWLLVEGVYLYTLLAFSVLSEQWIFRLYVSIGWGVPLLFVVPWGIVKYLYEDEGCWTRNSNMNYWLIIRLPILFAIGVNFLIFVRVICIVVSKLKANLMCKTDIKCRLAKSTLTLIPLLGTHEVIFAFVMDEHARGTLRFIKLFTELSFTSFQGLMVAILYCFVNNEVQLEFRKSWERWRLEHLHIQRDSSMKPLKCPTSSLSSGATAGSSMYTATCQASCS

SMILES	EC50 [nM]
CC[C@H](C)[C@H](NC(=O)[C@H](Cc1ccccc1)NC(=O)[C@H](CCC(=O)O)NC(=O)[C@H](CCCCNC(=O)COCCOCCNC(=O)COCCOCCNC(=O)CC[C@H](NC(=O)CCCCCCCCCCCCCCCCC(=O)O)C(=O)O)NC(=O)[C@H](C)NC(=O)[C@H](C)NC(=O)[C@H](CCC(N)=O)NC(=O)[C@@H]1CCCN1C(=O)[C@H](CCC(=O)O)NC(=O)[C@H](CC(C)C)NC(=O)[C@H](Cc1ccc(O)cc1)NC(=O)[C@H](CO)NC(=O)[C@H](CO)NC(=O)[C@@H](NC(=O)[C@H](CC(=O)O)NC(=O)[C@H](CO)NC(=O)[C@@H](NC(=O)[C@H](Cc1ccccc1)NC(=O)[C@@H](NC(=O)CNC(=O)[C@H](CCC(=O)O)NC(=O)[C@@H]1CCCN1C(=O)[C@@H](N)Cc1c[nH]cn1)[C@@H](C)O)[C@@H](C)O)C(C)C)C(=O)N[C@@H](C)C(=O)N[C@@H](Cc1c[nH]c2ccccc12)C(=O)N[C@@H](CC(C)C)C(=O)N[C@H](C(=O)N[C@@H](CCCNC(=N)N)C(=O)NCC(=O)N[C@@H](CCCNC(=N)N)C(=O)NCC(=O)O)C(C)C [NO: 17]	3.32 ± 0.677

same assay, conditions: CHO cell line stably expressing human GLP-1R; downstream cAMP signal, LANCE cAMP kit; read-out: GLP-1R EC50

SMILES	EC50 [nM]
CC[C@H](C)[C@H](NC(=O)[C@H](Cc1ccccc1)NC(=O)[C@H](CCC(=O)O)NC(=O)[C@H](CCCCNC(=O)COCCOCCNC(=O)COCCOCCNC(=O)CC[C@H](NC(=O)CCCCCCCCCCCCCCCCC(=O)O)C(=O)O)NC(=O)[C@H](C)NC(=O)[C@H](C)NC(=O)[C@H](CCC(N)=O)NC(=O)[C@@](C)(CC)NC(=O)[C@H](CCC(=O)O)NC(=O)[C@H](CC(C)C)NC(=O)[C@H](Cc1ccc(O)cc1)NC(=O)[C@H](CO)NC(=O)[C@H](CO)NC(=O)[C@@H](NC(=O)[C@H](CC(=O)O)NC(=O)[C@H](CO)NC(=O)[C@@H](NC(=O)[C@H](Cc1ccccc1)NC(=O)[C@@H](NC(=O)CNC(=O)[C@H](CCC(=O)O)NC(=O)[C@@](C)(CC)NC(=O)[C@@H](N)Cc1c[nH]cn1)[C@@H](C)O)[C@@H](C)O)C(C)C)C(=O)N[C@@H](C)C(=O)N[C@@H](Cc1c[nH]c2ccccc12)C(=O)N[C@@H](CC(C)C)C(=O)N[C@H](C(=O)N[C@@H](CCCNC(=N)N)C(=O)NCC(=O)N[C@@H](CCCNC(=N)N)C(=O)NCC(=O)O)C(C)C [NO: 1]	91.7 ± 9.69
CC[C@H](NC(=O)[C@H](CCC(=O)O)NC(=O)[C@H](CC(C)C)NC(=O)[C@H](Cc1ccc(O)cc1)NC(=O)[C@H](CO)NC(=O)[C@H](CO)NC(=O)[C@@H](NC(=O)[C@H](CC(=O)O)NC(=O)[C@H](CO)NC(=O)[C@@H](NC(=O)[C@H](Cc1ccccc1)NC(=O)[C@@H](NC(=O)CNC(=O)[C@H](CCC(=O)O)NC(=O)[C@H](CC)NC(=O)[C@@H](N)Cc1c[nH]cn1)[C@@H](C)O)[C@@H](C)O)C(C)C)C(=O)N[C@@H](CCC(N)=O)C(=O)N[C@@H](C)C(=O)N[C@@H](C)C(=O)N[C@@H](CCCCNC(=O)COCCOCCNC(=O)COCCOCCNC(=O)CC[C@H](NC(=O)CCCCCCCCCCCCCCCCC(=O)O)C(=O)O)C(=O)N[C@@H](CCC(=O)O)C(=O)N[C@@H](Cc1ccccc1)C(=O)N[C@H](C(=O)N[C@@H](C)C(=O)N[C@@H](Cc1c[nH]c2ccccc12)C(=O)N[C@@H](CC(C)C)C(=O)N[C@H](C(=O)N[C@@H](CCCNC(=N)N)C(=O)NCC(=O)N[C@@H](CCCNC(=N)N)C(=O)NCC(=O)O)C(C)C)[C@@H](C)CC [NO: 7] (H-H[Abu]EGTFTSDVSSYLE[Abu]QAAK([AEEA-AEEA-γGlu-C18 diacid])EFIAWLVRGRG-OH)	8.8 ± 1.41
CCSC[C@@H](NC(=O)[C@H](CCC(=O)O)NC(=O)[C@H](CC(C)C)NC(=O)[C@H](Cc1ccc(O)cc1)NC(=O)[C@H](CO)NC(=O)[C@H](CO)NC(=O)[C@@H](NC(=O)[C@H](CC(=O)O)NC(=O)[C@H](CO)NC(=O)[C@@H](NC(=O)[C@H](Cc1ccccc1)NC(=O)[C@@H](NC(=O)CNC(=O)[C@H](CCC(=O)O)NC(=O)[C@@H](CSCC)NC(=O)[C@@H](N)Cc1c[nH]cn1)[C@@H](C)O)[C@@H](C)O)C(C)C)C(=O)N[C@@H](CCC(N)=O)C(=O)N[C@@H](C)C(=O)N[C@@H](C)C(=O)N[C@@H](CCCCNC(=O)COCCOCCNC(=O)COCCOCCNC(=O)CC[C@H](NC(=O)CCCCCCCCCCCCCCCCC(=O)O)C(=O)O)C(=O)N[C@@H](CCC(=O)O)C(=O)N[C@@H](Cc1ccccc1)C(=O)N[C@H](C(=O)N[C@@H](C)C(=O)N[C@@H](Cc1c[nH]c2ccccc12)C(=O)N[C@@H](CC(C)C)C(=O)N[C@H](C(=O)N[C@@H](CCCNC(=N)N)C(=O)NCC(=O)N[C@@H](CCCNC(=N)N)C(=O)NCC(=O)O)C(C)C)[C@@H](C)CC [NO: 11] (H-H[dC](Et)EGTFTSDVSSYLE[dC](Et)QAAK([AEEA-AEEA-γGlu-C18 diacid])EFIAWLVRGRG-OH)	8.1 ± 0.507

The remaining lines, values ahead:

EC50 [nM]	SMILES
0.915 ± 0.126	CC[C@H](C)[C@H](NC(=O)[C@H](Cc1ccccc1)NC(=O)[C@H](CCC(=O)O)NC(=O)[C@H](CCCCNC(=O)COCCOCCNC(=O)COCCOCCNC(=O)CC[C@H](NC(=O)CCCCCCCCCCCCCCCCC(=O)O)C(=O)O)NC(=O)[C@H](C)NC(=O)[C@H](C)NC(=O)[C@H](CCC(N)=O)NC(=O)C1(NC(=O)[C@H](CCC(=O)O)NC(=O)[C@H](CC(C)C)NC(=O)[C@H](Cc2ccc(O)cc2)NC(=O)[C@H](CO)NC(=O)[C@H](CO)NC(=O)[C@@H](NC(=O)[C@H](CC(=O)O)NC(=O)[C@H](CO)NC(=O)[C@@H](NC(=O)[C@H](Cc2ccccc2)NC(=O)[C@@H](NC(=O)CNC(=O)[C@H](CCC(=O)O)NC(=O)C2(NC(=O)[C@@H](N)Cc3c[nH]cn3)COC2)[C@@H](C)O)[C@@H](C)O)C(C)C)COC1)C(=O)N[C@@H](C)C(=O)N[C@@H](Cc1c[nH]c2ccccc12)C(=O)N[C@@H](CC(C)C)C(=O)N[C@H](C(=O)N[C@@H](CCCNC(=N)N)C(=O)NCC(=O)N[C@@H](CCCNC(=N)N)C(=O)NCC(=O)O)C(C)C [NO: 5] (H-H[Ac4c(3-oxa)]EGTFTSDVSSYLE[Ac4c(3-oxa)]QAAK([AEEA-AEEA-γGlu-C18 diacid])EFIAWLVRGRG-OH)
0.675 ± 0.067	CC[C@@H](NC(=O)[C@H](CCC(=O)O)NC(=O)[C@H](CC(C)C)NC(=O)[C@H](Cc1ccc(O)cc1)NC(=O)[C@H](CO)NC(=O)[C@H](CO)NC(=O)[C@@H](NC(=O)[C@H](CC(=O)O)NC(=O)[C@H](CO)NC(=O)[C@@H](NC(=O)[C@H](Cc1ccccc1)NC(=O)[C@@H](NC(=O)CNC(=O)[C@H](CCC(=O)O)NC(=O)[C@@H](CC)NC(=O)[C@@H](N)Cc1c[nH]cn1)[C@@H](C)O)[C@@H](C)O)C(C)C)C(=O)N[C@@H](CCC(N)=O)C(=O)N[C@@H](C)C(=O)N[C@@H](C)C(=O)N[C@@H](CCCCNC(=O)COCCOCCNC(=O)COCCOCCNC(=O)CC[C@H](NC(=O)CCCCCCCCCCCCCCCCC(=O)O)C(=O)O)C(=O)N[C@@H](CCC(=O)O)C(=O)N[C@@H](Cc1ccccc1)C(=O)N[C@H](C(=O)N[C@@H](C)C(=O)N[C@@H](Cc1c[nH]c2ccccc12)C(=O)N[C@@H](CC(C)C)C(=O)N[C@H](C(=O)N[C@@H](CCCNC(=N)N)C(=O)NCC(=O)N[C@@H](CCCNC(=N)N)C(=O)NCC(=O)O)C(C)C)[C@@H](C)CC [NO: 9] (H-H[dAbu]EGTFTSDVSSYLE[dAbu]QAAK([AEEA-AEEA-γGlu-C18 diacid])EFIAWLVRGRG-OH)
5.59 ± 0.575	CCCC[C@@H](NC(=O)[C@H](CCC(=O)O)NC(=O)[C@H](CC(C)C)NC(=O)[C@H](Cc1ccc(O)cc1)NC(=O)[C@H](CO)NC(=O)[C@H](CO)NC(=O)[C@@H](NC(=O)[C@H](CC(=O)O)NC(=O)[C@H](CO)NC(=O)[C@@H](NC(=O)[C@H](Cc1ccccc1)NC(=O)[C@@H](NC(=O)CNC(=O)[C@H](CCC(=O)O)NC(=O)[C@@H](CCCC)NC(=O)[C@@H](N)Cc1c[nH]cn1)[C@@H](C)O)[C@@H](C)O)C(C)C)C(=O)N[C@@H](CCC(N)=O)C(=O)N[C@@H](C)C(=O)N[C@@H](C)C(=O)N[C@@H](CCCCNC(=O)COCCOCCNC(=O)COCCOCCNC(=O)CC[C@H](NC(=O)CCCCCCCCCCCCCCCCC(=O)O)C(=O)O)C(=O)N[C@@H](CCC(=O)O)C(=O)N[C@@H](Cc1ccccc1)C(=O)N[C@H](C(=O)N[C@@H](C)C(=O)N[C@@H](Cc1c[nH]c2ccccc12)C(=O)N[C@@H](CC(C)C)C(=O)N[C@H](C(=O)N[C@@H](CCCNC(=N)N)C(=O)NCC(=O)N[C@@H](CCCNC(=N)N)C(=O)NCC(=O)O)C(C)C)[C@@H](C)CC [NO: 13] (H-H[dNle]EGTFTSDVSSYLE[dNle]QAAK([AEEA-AEEA-γGlu-C18 diacid])EFIAWLVRGRG-OH)
2.9 ± 0.39	CCC[C@@H](NC(=O)[C@H](CCC(=O)O)NC(=O)[C@H](CC(C)C)NC(=O)[C@H](Cc1ccc(O)cc1)NC(=O)[C@H](CO)NC(=O)[C@H](CO)NC(=O)[C@@H](NC(=O)[C@H](CC(=O)O)NC(=O)[C@H](CO)NC(=O)[C@@H](NC(=O)[C@H](Cc1ccccc1)NC(=O)[C@@H](NC(=O)CNC(=O)[C@H](CCC(=O)O)NC(=O)[C@@H](CCC)NC(=O)[C@@H](N)Cc1c[nH]cn1)[C@@H](C)O)[C@@H](C)O)C(C)C)C(=O)N[C@@H](CCC(N)=O)C(=O)N[C@@H](C)C(=O)N[C@@H](C)C(=O)N[C@@H](CCCCNC(=O)COCCOCCNC(=O)COCCOCCNC(=O)CC[C@H](NC(=O)CCCCCCCCCCCCCCCCC(=O)O)C(=O)O)C(=O)N[C@@H](CCC(=O)O)C(=O)N[C@@H](Cc1ccccc1)C(=O)N[C@H](C(=O)N[C@@H](C)C(=O)N[C@@H](Cc1c[nH]c2ccccc12)C(=O)N[C@@H](CC(C)C)C(=O)N[C@H](C(=O)N[C@@H](CCCNC(=N)N)C(=O)NCC(=O)N[C@@H](CCCNC(=N)N)C(=O)NCC(=O)O)C(C)C)[C@@H](C)CC [NO: 15] (H-H[dNva]EGTFTSDVSSYLE[dNva]QAAK([AEEA-AEEA-γGlu-C18 diacid])EFIAWLVRGRG-OH)
